Laboratory results published in patent US8609410B2 (priority 2005, dated 2013).

What was measured:
Assay type in all cases: cell-based, human
A27L-specific CD8+ CTLs [1] = test: Induction of A27L-specific CD8+ CTLs by washed pulsed immature dendritic cells co-cultured with lymphocytes (tetramer flow cytometry)
Experimental: (§1) As a negative control, dendritic cells that were cultured without adding ZOMETA™ or the antigenic peptides were used.
After about 12 hours of culture, part of the activated dendritic cells that were co-pulsed with ZOMETA™ and the antigenic peptides were collected, placed in a 15 ml tube (BD Falcon) and centrifuged at 1500 rpm for 5 minutes. The resultant dendritic cells in the form of pellets were suspended in 10 ml of an AIM-V medium supplemented with 10% FBS and centrifuged at 1500 rpm for 5 minutes, followed by washing. The washing operation was repeated twice. The dendritic cells collected in this manner were used as stimulating cells. In other words, the activated dendritic cells that were co-pulsed with bisphosphonate and the disease antigenic peptides, the dendritic cells that were pulsed with either of them and the dendritic cells that were not pulsed with any of them were used as stimulating cells. […]
After dyeing in a shielded state at room temperature for 15 minutes, an anti-CD8 antibody that was labeled with FITC (BD Pharmingen) was added, followed by dyeing in a shielded state at 4° C. for 15 minutes. […] The cells were measured using EPICS XL.MCL, and the results of measurement were analyzed using EPICS 32.

[2] = test system: A27L antigen-specific CD8+ CTLs; test: Induction of A27L-specific CD8+ CTLs by dendritic cells co-pulsed with ZOMETA and apoptotic melanoma cells
Experimental: From a healthy donor, 200 ml of peripheral blood was collected. Mononuclear cells were obtained from this peripheral blood of the healthy donor. At this time, a mononuclear cell layer was collected using a density gradient solution for blood cell separation. After several times of washing in order to remove platelets, etc. from the collected cells, CD14-positive cells were isolated as monocytes with MACS. From the obtained dendritic cell precursors, differentiation induction of dendritic cells was carried out. The medium was prepared by adding 500 U/ml of GM-CSF (IMMUNEX) and 500 U/ml of IL-4 (Osteogenetics GmbH) to AIM-V supplemented with 10% FBS. On day 5 to day 7 after starting culture, immature dendritic cells were obtained.
A cancer cell line derived from MART-1-positive melanoma was collected, placed in a 15 ml tube (BD Falcon) and centrifuged at 1500 rpm for 5 minutes. […]
Using the number of all lymphocytes that were proliferated 7, 11 and 14 days after the start of co-culture, a labeled antibody and an antigen-specific tetramer, the ratio of the antigen-specific CD8+ CTLs in all of the lymphocytes was measured with a flow cytometer. […] The cells were measured using EPICS XL.MCL, and the results of measurement were analyzed using EPICS 32.

A27L-specific CD8+ CTLs [3] = test: Induction of A27L-specific CD8+ CTLs by artificial antigen-presenting cells MDA-MB/CD80 co-pulsed with ZOMETA and A27L; conditions: co-pulse 0.01 μM or 1 μM ZOMETA and 2 μg/ml A27L
Experimental: A human CD80 gene, which was a co-stimulatory molecule, was transfected by a lipofection method in a breast cancer-derived cell line: MDA-MB-231 (class I antigen HLA-A*0201) expressing MHC class I molecules, thus establishing a cell line MDA-MB/CD80 expressing human CD80 stably and constantly in MDA-MB-231 cells.
As a negative control, MDA-MB/CD80 cells that were cultured without adding ZOMETA™ or the antigenic peptides were used.
After about 12 hours of culture, part of the activated MDA-MB/CD80 cells that were co-pulsed with ZOMETA™ and the antigenic peptides were collected, placed in a 15 ml tube (BD Falcon) and centrifuged at 1500 rpm for 5 minutes. The resultant MDA-MB/CD80 cells in the form of pellets were suspended in 10 ml of an AIM-V medium supplemented with 10% FBS and centrifuged at 1500 rpm for 5 minutes, followed by washing. The washing operation was repeated twice. The MDA-MB/CD80 cells collected in this manner were used as stimulating cells. In other words, the activated MDA-MB/CD80 cells that were co-pulsed with bisphosphonate and the disease antigenic peptides, the MDA-MB/CD80 cells that were pulsed with either of them and the MDA-MB/CD80 cells that were not pulsed with any of them were used as stimulating cells. […]

IFN-γ producing cells = test: IFN-γ ELISPot of co-cultured immunocytes
Experimental: 70% ethanol was added to each well of MultiScreen plate (MILLIPORE) and removed within 2 minutes. Each well of the above-noted plate was washed five times in 200 μl of PBS. […] This plate was left overnight at 4° C. This plate was washed four times in 200 μl/well of PBS. Then, 200 μl of an AIM-V medium supplemented with 10% FBS was added in each well, followed by blocking at room temperature for at least 30 minutes. The blocking medium was removed, and the plate was washed four times in 200 μl/well of PBS. A co-cultured cell population in each condition obtained by a method similar to the above-described co-culture was collected by centrifugation and washed twice in AIM-V.
The number of cells indicates the number per well of an assay plate. […] The culture volume was adjusted to be 100 μl per well. For each culture condition, 300 μl of culture, which corresponds to 3 wells, was performed. 100 μl per well of the cells pre-cultured under each condition was added into 3 wells in the plate that had been washed in PBS after blocking, and cultured overnight at 37° C. under a condition of 5% CO2. The cultured cells were removed from the wells and washed five times in 200 μl/well of PBS. […] The plate was allowed to stand still at room temperature for 2 hours. This plate was washed five times in 200 μl/well of PBS. Streptavidin to which alkaline phosphatase was bound (MABTECH ELISPot™ for Human Interferon-γ kit) was diluted with PBS supplemented with 0.5% FBS so that 1:1000, and 100 μl thereof per well was added. The plate was left at room temperature for 1 hour. This plate was washed five times in 200 μl/well of PBS. Then, 100 μl of BCIP/NBTplus substrate solution (Wako) was added per well, which was left in a dark place until spots became visible. When the spots became visible to the naked eye, the plate was washed sufficiently in distilled water. After checking that a membrane in the plate is dry, the number of spots were measured using ELISPot™ reader (AID Autoimmun Diagnostika GmbH), and the data were analyzed with AID software version 3.1 (AID).

BMLF1-specific CD8+ CTLs = test: Induction of BMLF1-specific CD8+ CTLs by dendritic cells co-pulsed with ZOMETA and BMLF1; conditions: for The number of CTLs / The total number of cells / Ratio of CTLs (%): BMLF1 2 μg/ml; for Ratio of CTLs (%): immature dendritic cells, 7 days
Experimental: as §1
After about 12 hours of the culture, part of the activated dendritic cells that were co-pulsed with ZOMETA™ and the antigenic peptides were collected, placed in a 15 ml tube (BD Falcon) and centrifuged at 1500 rpm for 5 minutes. The resultant dendritic cells in the form of pellets were suspended in 10 ml of an AIM-V medium supplemented with 10% FBS and centrifuged at 1500 rpm for 5 minutes, followed by washing. The washing operation was repeated twice. The dendritic cells collected in this manner were used as stimulating cells. In other words, the activated dendritic cells that were co-pulsed with bisphosphonate and the disease antigenic peptides, the dendritic cells that were pulsed with either of them and the dendritic cells that were not pulsed with any of them were used as stimulating cells. Cells prepared by suspending those (a CD14-negative cell population, which was mainly a T cell population) remaining after isolation of the CD14-positive cells for preparing the dendritic cells in an AIM-V medium supplemented with 10% FBS and 10% dimethyl sulfoxide (DMSO), and freeze-preserving them were thawed, washed and used as responding cells. 1×10^5 each of the obtained stimulating cells (dendritic cells) were cultured with 1×10^6 responding cells such that the total amount was 1 ml in a 48-well plate (CORNING) (responding cells:dendritic cells=10:1). The co-culture was carried out at about 37° C. under a condition of 5% CO2 for 7 days. […] In the case where the cells were proliferated rapidly, 1 ml of an AIM-V medium supplemented with 40 U/ml of IL-2 and 10% FBS was added on day 4 to day 6.
After dyeing in a shielded state at room temperature for 15 minutes, an anti-CD8 antibody that was labeled with FITC (BD Pharmingen) was added, followed by dyeing in a shielded state at 4° C. for 15 minutes. As a control, an isotype of each of the antibodies was used. The cells were measured using EPICS XL.MCL, and the results of measurement were analyzed using EPICS 32.

Compound: O=P(O)(O)C(O)(Cn1ccnc1)P(=O)(O)O [ZOMETA ™, zoledronate sodium hydrate]
- ratio of antigen-specific CD8+ CTLs versus dendritic cells pulsed with peptides alone (A27L-specific CD8+ CTLs [1]; co-pulse 0.01 μM ZOMETA and 2 μg/ml A27L): about 4 times
- Ratio (%) of disease antigen-specific CD8+ CTLs (A27L-specific CD8+ CTLs [1]; immature dendritic cells, ZOMETA 0.01 μM and/or A27L 2 μg/ml, 7 days co-culture): 0.00%
- increase of tetramer-positive cells by the addition of ZOMETA ([2]; day 11, versus apoptotic cells alone): about 15 times
- Ratio of CD8+ CTLs (%), A27L-specific ([2]; day 11 of culture, ZOMETA 0.01 μM, apoptotic MART-1-positive melanoma cells): 0.14%
- ratio of antigen-specific CD8+ CTLs versus MDA-MB/CD80 cells pulsed with peptides alone (A27L-specific CD8+ CTLs [3]): about 6 times
- The number of IFN-γ producing cells in all of 2500 lymphocytes (IFN-γ producing cells; Donor A, Lymphocytes + dendritic cells pulsed with peptides (re-stimulation)): 100
- The number of IFN-γ producing cells in all of 2500 lymphocytes (IFN-γ producing cells; Donor A, Lymphocytes alone (no re-stimulation)): 4
- The number of IFN-γ producing cells in all of 2500 lymphocytes (IFN-γ producing cells; Donor B, Lymphocytes + dendritic cells pulsed with peptides (re-stimulation)): 50
- The number of IFN-γ producing cells in all of 2500 lymphocytes (IFN-γ producing cells; Donor B, Lymphocytes alone (no re-stimulation)): 0
- The number of CTLs (BMLF1-specific CD8+ CTLs; ZOMETA 0.01 μM): 10845
- The total number of cells (BMLF1-specific CD8+ CTLs; ZOMETA 0.01 μM): 2.01 × 10^6
- Ratio of CTLs (%) (BMLF1-specific CD8+ CTLs; ZOMETA 0.01 μM): 0.54%
- The number of CTLs (BMLF1-specific CD8+ CTLs; ZOMETA 0.1 μM): 12130
- The total number of cells (BMLF1-specific CD8+ CTLs; ZOMETA 0.1 μM): 2.17 × 10^6
- Ratio of CTLs (%) (BMLF1-specific CD8+ CTLs; ZOMETA 0.1 μM): 0.56%
- The number of CTLs (BMLF1-specific CD8+ CTLs; ZOMETA 1 μM): 11389
- The total number of cells (BMLF1-specific CD8+ CTLs; ZOMETA 1 μM): 1.96 × 10^6
- Ratio of CTLs (%) (BMLF1-specific CD8+ CTLs; ZOMETA 1 μM): 0.58%
- The number of CTLs (BMLF1-specific CD8+ CTLs; ZOMETA 5 μM): 21266
- The total number of cells (BMLF1-specific CD8+ CTLs; ZOMETA 5 μM): 2.84 × 10^6
- Ratio of CTLs (%) (BMLF1-specific CD8+ CTLs; ZOMETA 5 μM): 0.75%
- The number of CTLs (BMLF1-specific CD8+ CTLs; ZOMETA 20 μM): 21133
- The total number of cells (BMLF1-specific CD8+ CTLs; ZOMETA 20 μM): 2.94 × 10^6
- Ratio of CTLs (%) (BMLF1-specific CD8+ CTLs; ZOMETA 20 μM): 0.72%
- ratio of antigen-specific CD8+ CTLs versus dendritic cells pulsed with peptides alone (BMLF1-specific CD8+ CTLs; co-pulse ZOMETA 0 to 20 μM and BMLF1): about 3.2 times
